How the values were obtained:
[1] = test system: luciferase expressing OPM2 cells; assay: In vivo Multiple Myeloma (MM) assay (Assay 8); set-up: species or system Mice; conditions: 50 mg/kg every 3 days, subcutaneous oil depot
Procedure: Assay 8) In vivo Multiple Myeloma (MM) assay. Mice were inoculated with at two sites each with 3×10^6 luciferase expressing OPM2 cells suspended in 50 μL of growth medium and 50 μL of Matrigel basement membrane matrix (Becton Dickenson; Bedford, Mass.). Tumors were injected subcutaneously in the upper and lower flanks of the mice and allowed to establish for 2 weeks. After 2 weeks, a test compound or control vehicle was administered in a subcutaneous oil depot at a dose of 50 mg/kg every 3 days.
Tumors were measured using bioluminescence imaging on the Xenogen IVIS 200. Mice received intra-peritoneal injections of 200 μL of D-luciferin at 3.75 mg/mL in sterile PBS. Mice were then anesthetized with isofluorane and imaged 15 minutes post-injection of luciferin. Quantification of tumor size was performed using the Living Image™ software.
MM Xenograft murine model. Mice were inoculated with at two sites each with 3×10^6 luciferase expressing OPM2 cells suspended in 50 μL of growth medium and 50 μL of Matrigel basement membrane matrix (Becton Dickenson; Bedford, Mass.). Tumors were injected subcutaneously in the upper and lower flanks of the mice and allowed to establish for 2 weeks. […]
Tumors were measured using bioluminescence imaging on the Xenogen IVIS 200. […] Quantification of tumor size was performed using the Living Image™ software. […]

SHIP C2 domain = assay: Scintillation proximity assay, C2 domain; assay type: binding; conditions: [3H]-Compound 100, SPA beads
Procedure: Compound 100 was radiolabelled with tritium by GE Healthcare (Piscataway, N.J.) to a specific activity of 42 Ci/mmole. Copper chelate (His-Tag) YSi SPA Scintillation Beads (GE Healthcare, Piscataway, N.J.) were diluted in 0.25% BSA/TBS to 1.5 mg/mL and recombinant, His6-tagged protein added at the indicated concentrations: wild-type (1 μM), ΔC2 SHIP enzyme (1 pM) or C2 domain (10 nM). Protein was allowed to bind 1 h at 23° C., and 250 μg of beads were aliquoted per well of a 96-well plate. 5 μCi of [^3H]-Compound 100 was added per well, the plate gently agitated for 30 min and the amount of bead associated radioactivity quantified by counting in a Wallac BetaPlate plate scintillation counter.
Isolated recombinant, His6-tagged C2 domain was expressed and its PI-3,4-P2 binding ability was determined using protein lipid overlay assays. Purified C2 domain was incubated with membrane strips spotted with PI-3,4-P2 and bound protein detected using an anti-His6 antibody. As shown in FIG. 11C the C2 domain bound PI-3,4-P2 and this binding was inhibited by Compound 100, consistent with both Compound 100 and PI-3,4-P2 interacting with the C2 domain at a common binding site.

plasma TNFα = assay: Mouse endotoxemia model (Assay 6); assay type: in vivo, C57B16 mice; conditions: oral administration 30 min prior to LPS, 2 hrs
Procedure: (§1) Assay 6) Mouse endotoxemia model. 6-8 week old C57B16 mice (VCHRI Mammalian Model of Human Disease Core Facility, Vancouver, BC) were orally administered the test compound 30 min prior to an IP injection of 2 mg/kg of LPS (E. Coli serotype 0111:B4, Sigma, Oakville, Ont). Blood was drawn 2 hrs later for determination of plasma TNFα by ELISA.
as §1, with “Mouse” for “Assay 6) Mouse”, “indicated dose of AQX-016A, Compound 100 or dexamethasone or carrier” for “test compound”, “ELISA. Results are representative of 3 independent experiments. (FIGS. 7D and 9)” for “ELISA.”
AQX-016A's ability to provide protection by inhibiting inflammatory reactions in vivo was assessed in mouse models. The mouse model of endotoxic shock involves intraperitoneal (IP) injection of bacterial LPS and measurement of serum TNFα levels 2 hrs later. We orally administered AQX-016A or the steroidal drug dexamethasone to mice 30 min prior to the LPS challenge.

[2] = test system: neutrophil myeloperoxidase (MPO) activity; assay: Mouse acute cutaneous anaphylaxis model (Assay 5); assay type: in vivo, CD1 mice
Procedure: Assay 5) Mouse acute cutaneous anaphylaxis model. 6-8 week old CD1 mice
(§2) (University of British Columbia Animal Facility, Vancouver, BC) were sensitized to the hapten DNP by cutaneous application of 25 μL of 0.5% dinitrofluorobenzene (DNFB) (Sigma, Oakville, Ont) in acetone to the shaved abdomen of mice for two consecutive days. 24 hrs later, test substances (dissolved in 10 μL of 1:2 DMSO:MeOH) were painted on the right ear while the left ear received vehicle control. 30 min after drug application, DNFB was applied to both ears to induce mast cell degranulation. A 6 mm punch was taken from the ear and immediately frozen on dry ice for subsequent determination of neutrophil myeloperoxidase (MPO) activity.
as §2, with “Mouse acute cutaneous anaphylaxis model. 6-8 week old CD1 mice (University” for “(University”, “activity. Compound 100's ability to inhibit cutaneous anaphylaxis was assessed.” for “activity.”
Anaphylactic or allergic responses are mediated by allergen-induced degranulation of pre-sensitized mast cells. The mouse ear edema/cutaneous anaphylaxis model involves pre-sensitization of mice with the haptenizing agent dinitrofluorobenzene (DNFB). One week later the allergic reaction is elicited by painting DNFB onto the ears of the mice. The efficacy of potential anti-inflammatory compounds is tested by topical application of the test substance to one ear and comparing the resulting ear edema or inflammation of the two ears.

binding to C2 domain (SHIP C2 domain): directly bind the C2 domain
SMILES: Cc1cc(O)cc2c1[C@]1(C)CCC3C(C)(C)CCC[C@]3(C)[C@H]1C2 (some centres unmarked) [Compound 100]
Assay Number 8: In vivo Multiple Myeloma (MM) assay [1]: +
LPS-induced plasma/serum TNFα levels (plasma TNFα): efficiently inhibited
Assay Number 5: Mouse acute cutaneous anaphylaxis model ([2]; topical on ear, DNFB): +
allergen (DNFB)-induced inflammation ([2]; topically applied vs vehicle control-treated ear): dramatically inhibited

Source: patent US20110263539A1, “SHIP 1 MODULATOR COMPOUNDS” (THE UNIVERSITY OF BRITISH COLUMBIA, priority 2006, published 2011)
